Tested on: subjects with Age-Associated Memory Impairment
Test: CDR computerized cognitive test battery, 6-week study in Age-Associated Memory Impairment
Assay type: in vivo, human
Settings: for Quality of Episodic Secondary Memory, LS mean difference vs placebo: overall; for Self-Rated Contentment, ANCOVA: p<0.001
Procedure: A single-center, 6-week, double-blind, randomizes, parallel-group, placebo-controlled, dose-ranging pilot study was performed to evaluate the efficacy, tolerability, and safety of >96% ethyl-EPA in subjects with subjective and objective memory impairment according to generally accepted criteria for Age-Associated Memory Impairment (“AAMI”). The primary objective of the study was to determine the effect of >96% ethyl-EPA 1 g, 2 g, and 4 g daily, compared to placebo, on cognitive performance in subjects with AAMI.
The population for this study was men and women between ages 50 and 70 with self-reported complaints of memory loss, subjective and objective cognitive impairment with a score of at least one standard deviation below that of the mean for age-matched elderly population as determined by the total score of between 13 and 20 from the Paired Associated Learning (“PAL”) subset of the Wechsler Memory Scale, evidence of adequate intellectual function as determined by a scaled score of at least 9 (raw score of at least 32) on the Vocabulary subtest of the Wechsler Adult Intelligence Scale and absence of dementia as determined by a score of 24 or higher on the Mini-Mental State Examination (“MMSE”).
Ninety-four subjects were randomized into one of six groups: 1 g E-EPA daily (n=23), 2 g E-EPA daily (n=24), 4 g E-EPA daily (n=24), 1 g placebo daily (n=7), 2 g placebo daily (n=8), and 4 g placebo daily (n=8). E-EPA was provided as 500 mg soft gel capsules containing >96% E-EPA and 0.2% dl-α-tocopherol as an antioxidant. Placebo capsules contained 467 mg of liquid paraffin and 0.2% dl-a-tocopherol. Ninety-one subjects completed the study. Two subjects in the 2 g E-EPA group and one subject in the 2 g placebo group discontinued the study.
The study consisted of a screening visit, a training visit, and four study visits. At the screening visit, subjects' eligibility was determined through cognitive tests (verbal paired associated learning [PAL] subscale, vocabulary subtest, Memory Assessment Clinics Questionnaire [MAC-Q], mini mental state evaluation [MMSE] and MINI [mini international neuropsychiatric interview; sections 1 and 2 of Diagnostic and Statistical Manual of Mental Disorders, 4th Edition (DSM-IV) plus dysthymia]), haematology, clinical chemistry and 12-lead electrocardiogram (ECG). At the training visit, subjects were shown how to use the CDR computerized system. Subjects took study drug for 6 weeks and on Days 0, 14, 28 and 42, subjects underwent the CDR cognitive test battery.
A selection of tasks from the CDR computerized cognitive assessment system were administered at Visit 2 (training visit), Visit 3 (baseline), Visit 4 (Day 14), Visit 5 (Day 28) and Visit 6 (Day 42). Parallel forms of the tests were presented at each testing session. All tasks were computer-controlled, the information presented on high resolution monitors, and the responses recorded via a response model containing two buttons: one marked ‘no’ and the other ‘yes’. Five CDR composite scores were used as the primary/secondary outcome variables. The task titles were: • Word Presentation • Immediate Word Recall • Picture Presentation • Simple Reaction Time • Digit Vigilance • Choice Reaction Time • Spatial Working Memory • Numeric Working Memory • Delayed Word Recall • Word Recognition • Picture Recognition • Bond-Lader Visual Analogue Scales of Mood and Alertness • Screen, Using the Computer Mouse
Summary statistics were provided for the ITT and Study Per Protocol Populations separately for all composite scores, major and supportive variables. Summary statistics were performed for both the unadjusted and difference from baseline data (i.e. the difference from the time matched predose assessments on Day 0). Summary statistics were calculated by treatment, day and time-point. The summary statistics comprised n, mean, median, SD, standard error of mean (“SEM”), minimum and maximum values. […]

## CC/C=C\C/C=C\C/C=C\C/C=C\C/C=C\CCCC(=O)OCC [Ethyl-EPA, all-cis eicosa-5,8,11,14,17-pentaenoic acid ethyl ester]
ITT
  Continuity of Attention and Digit Vigilance Targets Detected, effect of treatment: no statistically significant effect of treatment
  Immediate and Delayed Word Recall Accuracies, Word and Picture Recognition Sensitivity Indices, effect of treatment: no statistically significant effects of treatment
  Quality of Episodic Secondary Memory, effect of treatment: no statistically significant effect of treatment
  Self-Rated Alertness, effect of treatment: no statistically significant effect of treatment
  Self-Rated Calmness, effect of treatment: no statistically significant effect of treatment
  Self-Rated Contentment, LS mean difference to placebo: no statistically significant effects
  Simple Reaction Time and Digit Vigilance Speed, effect of treatment: no statistically significant effects of treatment
  Speed of Memory and subtasks Spatial and Numeric Working Memory Speeds, Word and Picture Recognition Speeds, effect of treatment: no statistically significant effects of treatment
  Self-Rated Contentment, ANCOVA: statistically significant treatment by day interaction
ITT, 1, 2, 4 g daily vs placebo, ANCOVA
  Power of Attention, effect of treatment: no statistically significant effect of treatment
ITT, 1 g, Day 14, p=0.028
  Immediate Word Recall Accuracy, LS mean difference vs placebo: statistically significant decreases
ITT, 1 g, Day 14 at AM 2, p=0.084
  Picture Recognition Speed, difference vs placebo: trends for benefits
ITT, 1 g, Day 14 at PM 2, p=0.020
  Immediate Word Recall Accuracy, LS mean difference vs placebo: statistically significant decreases
ITT, 1 g, Day 28, p=0.024
  Word Recognition Sensitivity Index, LS mean difference vs placebo: statistically significant decreases
ITT, 1 g, Day 28 at AM 1, p=0.085
  Picture Recognition Speed, difference vs placebo: trends for benefits
ITT, 1 g, Day 28 at AM 2, p=0.017
  Picture Recognition Sensitivity Index, LS mean difference vs placebo: statistically significant decrease
ITT, 1 g, Day 28 at PM 2, p=0.040
  Picture Recognition Sensitivity Index, LS mean difference vs placebo: statistically significant decrease
ITT, 1 g, at AM 1, p=0.040
  Immediate Word Recall Accuracy, LS mean difference vs placebo: statistically significant decreases
ITT, 1 g, p=0.040
  Quality of Episodic Secondary Memory, LS mean difference vs placebo: statistically significant decreases
ITT, 2 g, Day 28, p=0.017
  Immediate Word Recall Accuracy, LS mean difference vs placebo: statistically significant decreases
ITT, 2 g, Day 28, p=0.047
  Self-Rated Alertness, LS mean difference vs placebo: statistically significant decrease in ratings
ITT, 2 g, Day 28 at AM 1, p=0.006
  Immediate Word Recall Accuracy, LS mean difference vs placebo: statistically significant decreases
ITT, 2 g, Day 28 at AM 2, p=0.041
  Self-Rated Alertness, LS mean difference vs placebo: statistically significant decrease in ratings
ITT, 2 g, at AM 1, p=0.028
  Immediate Word Recall Accuracy, LS mean difference vs placebo: statistically significant decreases
ITT, 2 g, p=0.035
  Quality of Episodic Secondary Memory, LS mean difference vs placebo: statistically significant decreases
ITT, 4 g, Day 14 at PM 1, p=0.048
  Spatial Working Memory Speed, LS mean difference vs placebo: statistically significant benefit
ITT, 4 g, Day 28 at PM 2, p=0.030
  Word Recognition Sensitivity Index, LS mean difference vs placebo: statistically significant decrease
ITT, 4 g, Day 42, p=0.038
  Word Recognition Sensitivity Index, LS mean difference vs placebo: statistically significant decreases
ITT, 4 g, Day 42 at AM 1, p=0.061
  Spatial Working Memory Speed, LS mean difference vs placebo: trend for a benefit
ITT, 4 g, at PM 2, p=0.045
  Word Recognition Sensitivity Index, LS mean difference vs placebo: statistically significant decrease
ITT, any time-point
  Power of Attention, LS mean difference active treatment vs placebo: no LS mean difference
ITT, p=0.011
  Choice Reaction Time, ANCOVA: statistically significant treatment by day interaction
ITT, p=0.015
  Spatial Working Memory Sensitivity Index, ANCOVA: statistically significant treatment by day interaction
ITT, p=0.019
  Quality of Working Memory, ANCOVA: statistically significant treatment by day interaction
ITT, p=0.089
  Numeric Working Memory Sensitivity Index, ANCOVA: statistical trend for a treatment by day interaction
Study Per Protocol
  Continuity of Attention, effect of treatment: no statistically significant effect of treatment
Study Per Protocol, p=0.040
  Digit Vigilance Targets Detected, ANCOVA: statistically significant treatment by time-point interaction
Study Per-Protocol
  Immediate and Delayed Word Recall Accuracies, Word and Picture Recognition Sensitivity Indices, effect of treatment: no statistically significant effects of treatment
  Power of Attention, effect of treatment: no statistically significant effect of treatment
  Quality of Episodic Secondary Memory, effect of treatment: no statistically significant effects of treatment
  Self-Rated Alertness, effect of treatment: no statistically significant effect of treatment
  Self-Rated Calmness, effect of treatment: no statistically significant effect of treatment
  Self-Rated Contentment, LS mean difference to placebo: no statistically significant effects
  Simple Reaction Time and Digit Vigilance Speed, effect of treatment: no statistically significant effects of treatment
  Speed of Memory and subtasks Spatial and Numeric Working Memory Speed, Word and Picture Recognition Speed, effect of treatment: no statistical significant effects of treatment
  Self-Rated Contentment, ANCOVA: statistically significant treatment by day interaction
Study Per-Protocol, 1 g, Day 14, p=0.024
  Immediate Word Recall Accuracy, LS mean difference to placebo: statistically significant decreases
Study Per-Protocol, 1 g, Day 14 at PM 2, p=0.019
  Immediate Word Recall Accuracy, LS mean difference to placebo: statistically significant decreases
Study Per-Protocol, 1 g, Day 28, p=0.027
  Word Recognition Sensitivity Index, LS mean difference to placebo: statistically significant decreases
Study Per-Protocol, 1 g, Day 28 at AM 2, p=0.020
  Picture Recognition Sensitivity Index, LS mean difference vs placebo: statistically significant decreases
Study Per-Protocol, 1 g, Day 28 at PM 2, p=0.026
  Picture Recognition Sensitivity Index, LS mean difference vs placebo: statistically significant decreases
Study Per-Protocol, 1 g, at AM 1, p=0.038
  Immediate Word Recall Accuracy, LS mean difference to placebo: statistically significant decreases
Study Per-Protocol, 1 g, at AM 2, p=0.048
  Immediate Word Recall Accuracy, LS mean difference to placebo: statistically significant decreases
Study Per-Protocol, 1 g, p=0.043
  Quality of Episodic Secondary Memory, LS mean difference vs placebo: statistically significant decreases
Study Per-Protocol, 2 g, Day 28, p=0.017
  Immediate Word Recall Accuracy, LS mean difference to placebo: statistically significant decreases
Study Per-Protocol, 2 g, Day 28, p=0.035
  Self-Rated Alertness, LS mean difference vs placebo: statistically significant decrease in ratings
Study Per-Protocol, 2 g, Day 28 at AM 1, p=0.006
  Immediate Word Recall Accuracy, LS mean difference to placebo: statistically significant decreases
Study Per-Protocol, 2 g, Day 28 at AM 2, p=0.033
  Self-Rated Alertness, LS mean difference vs placebo: statistically significant decrease in ratings
Study Per-Protocol, 2 g, at AM 1, p=0.029
  Immediate Word Recall Accuracy, LS mean difference to placebo: statistically significant decreases
Study Per-Protocol, 2 g, p=0.036
  Quality of Episodic Secondary Memory, LS mean difference vs placebo: statistically significant decreases
Study Per-Protocol, 4 g, Day 42, p=0.038
  Word Recognition Sensitivity Index, LS mean difference to placebo: statistically significant decreases
Study Per-Protocol, 4 g, Day 42 at PM 1, p=0.071
  Self-Rated Calmness, LS mean difference vs placebo: statistical trend for an increase in ratings
Study Per-Protocol, any time-point
  Power of Attention, difference active treatment vs placebo: no difference between active treatment and placebo
Study Per-Protocol, p=0.013
  Choice Reaction Time, ANCOVA: statistically significant treatment by day interaction
Study Per-Protocol, p=0.014
  Spatial Working Memory Sensitivity Index, ANCOVA: statistically significant treatment by day interaction
Study Per-Protocol, p=0.021
  Quality of Working Memory, ANCOVA: statistically significant treatment by day interaction
post-hoc
  Continuity of Attention, post-hoc vs corresponding placebo: no general pattern of effects
  Quality of Working Memory and Numeric Working Memory Sensitivity Index, post-hoc vs corresponding placebo: only isolated improvements and declines in performance
  Self-Rated Calmness, post-hoc vs corresponding placebo: no differences between active treatment and placebo
post-hoc, 1 g, Days 14 and 28
  Self-rated Alertness and Self-rated Contentment, post-hoc vs corresponding placebo: decreases in ratings
post-hoc, 4 g, Day 42
  Choice Reaction Time, post-hoc vs corresponding placebo: superior to placebo at every time point
  Power of Attention, post-hoc vs corresponding placebo: overall benefit versus the corresponding placebo
post-hoc, 4 g, Day 42, Study PP Population
  Spatial Working Memory Sensitivity Index, post-hoc vs corresponding placebo: overall benefit
post-hoc, 4 g, PM 2 collapsed across days, several time-points Days 14 and 42
  Simple Reaction Time, post-hoc vs corresponding placebo: improvements in performance
post-hoc, 4 g, all study days
  Choice Reaction Time, post-hoc vs corresponding placebo: overall benefit versus corresponding placebo
post-hoc, explained by pre-existing group differences
  Quality of Episodic Secondary Memory and contributing subtasks, post-hoc vs corresponding placebo: a number of decreases
post-hoc, mostly 1 g
  Speed of Memory subtask measures, post-hoc vs corresponding placebo: some signs of improvement in performance
